Here are results for 32 molecules from patent US6528534B2 (Millennium Pharmaceuticals, Inc., priority 1995, dated 2003).

Counter-ions that a name gives are not always drawn. Bounds are passed on as bounds.

In data set [1] the test system is human platelet-rich plasma. Kind of data set: Platelet aggregation assay, Aggregation-Human PRP/ADP. The class given is cell-based. As to conditions: inhibition of ADP-induced aggregation of human platelet-rich plasma. Here is the method:
No. 2—The Platelet Aggregation Assay
In addition to the ELISA IIb-IIIa assay previously described the Aggregation-Human PRP/ADP Assay is useful for evaluating therapeutic compounds.
Platelet-rich plasma was prepared from healthy human volunteers for use in determining inhibition of platelet aggregation by the compounds. Blood was collected via a 21-gauge butterfly cannula, using a two-syringe technique into 1/10 volume of 3.8% trisodium citrate.
Platelet-rich plasma was prepared at room temperature by centrifugation of the citrated whole blood at 100×g for twelve minutes. The platelet rich plasma contained approximately 200-400,000 platelets/μl.
Platelet-poor plasma was prepared by centrifugation of citrated whole blood at 12,000×g for 2 minutes.
Platelet aggregation was assayed in a 4-channel platelet aggregatiob profiler (PAP-4, Biodata, Hatboro, Pa.) according to the manufacturers directions. Inhibition of platelet aggregation was studied by adding varying amounts of adenosine diphosphate (ADP) to stirred human platelet-rich plasma. Specifically, the human platelet-rich plasma was incubated with the compound being tested for 1 minute at 37° C. prior to the addition of a variety of aggregating agents most often ADP 5 μM, but also 1 μg/ml collagen, 1 μM U46619 and 0.3 μM platelet activating factor.

Another data set addresses T1, GPIIb-IIIa (Homo sapiens, UniProt P05106+P08514).
T1 construct: Purified platelet GPIIb-IIIa receptor was prepared as described by Fitzgerald; from tissue; host or cells: platelets
Kind of data set: ELISA IIb-IIIa assay (fibrinogen binding to immobilized GPIIb-IIIa). As to conditions: inhibition of biotinylated fibrinogen binding to plate-coated purified platelet GPIIb-IIIa receptor. On the procedure:
No. 1—The ELISA IIb-IIIa Assay:
In the following assay, GPIIb-IIIa is prepared in purified form, by a method such as described by Fitzgerald, L. A., et al., Anal Biochem (1985) 151:169-177, (the disclosure of which is incorporated herein by reference). GPIIb-IIIa is coated onto microtiter plates. The coated support is then contacted with fibrinogen and with the test material (e.g., compounds of Formula I) and incubated for a sufficient time to permit maximal binding of fibrinogen to the immobilized GPIIb-IIIa. Fibrinogen is typically provided at a concentration of about 5-50 nM and the test material can, if desired, be added at a series of dilution. Typical incubations are 2 to 4 hours at 25° C., the time and temperature being interdependent.
After incubation, the solution containing the fibrinogen and test material is removed and the level of binding of fibrinogen measured by quantitating bound fibrinogen to GPIIb-IIIa. Any suitable means of detection may be used, but it is convenient to employ labeled fibrinogen, for example using biotinylated labels. Such methods are well known in the art.
A. Description of Assays—Plate Assays
Purified platelet GPIIb-IIIa receptor was prepared as described by Fitzgerald, L. A., et al., Anal Biochem (1985) 151:169-177 (1985). Vitronectin receptor was prepared as described by Smith, J. W., J. Biol Chem (1988) 263:18726-18731. After purification, the receptors were stored in 0.1% Triton X-100 at 0.1-1.0 mg/ml.
The receptors were coated to the wells of 96-well flat-bottom ELISA plates (Linbro EIA-Plus microtiter plate, Flow Laboratories) after diluting 1:200 with a solution of 20 mM Tris-HCl, 150 mM NaCl, 1 mM CaCl2, pH 7.4, to reduce the Triton X-100 concentration to below its critical micellar concentration and adding an aliquot of 100 ul to each well. The wells were all allowed to incubate overnight at 4° C., and then aspirated to dryness. Additional sites were blocked by the addition of bovine serum albumin (BSA) at 35 mg/ml in the above buffer for two hours at 30° C. to prevent nonspecific binding. The wells were then washed once with binding buffer ([…] Tris-HCl, 100 mM NaCl 2 mM CaCl2, 1 mg/ml BSA).
The corresponding ligands (fibrinogen, von Willebrand Factor, or vitronectin) were conjugated to biotin using commercially available reagents and standard protocols. The labeled ligands were added to the receptor-coated wells at final concentration of 10 nM (100 ul/well) and incubated for 3 hours at 25° C. in the presence or absence of the test samples. After incubation, the wells are aspirated to dryness and bound ligand is quantitated.
The bound protein is detected by the addition of antibiotin antibody conjugated to alkaline phosphatase followed by addition of substrate (p-nitrophenyl phosphate), and determination of the optical density of each well at […]. Decreased color development is observed in wells incubated with test samples which inhibit binding of ligand to receptor.

T1 sequence (P08514 32-887 limits assumed): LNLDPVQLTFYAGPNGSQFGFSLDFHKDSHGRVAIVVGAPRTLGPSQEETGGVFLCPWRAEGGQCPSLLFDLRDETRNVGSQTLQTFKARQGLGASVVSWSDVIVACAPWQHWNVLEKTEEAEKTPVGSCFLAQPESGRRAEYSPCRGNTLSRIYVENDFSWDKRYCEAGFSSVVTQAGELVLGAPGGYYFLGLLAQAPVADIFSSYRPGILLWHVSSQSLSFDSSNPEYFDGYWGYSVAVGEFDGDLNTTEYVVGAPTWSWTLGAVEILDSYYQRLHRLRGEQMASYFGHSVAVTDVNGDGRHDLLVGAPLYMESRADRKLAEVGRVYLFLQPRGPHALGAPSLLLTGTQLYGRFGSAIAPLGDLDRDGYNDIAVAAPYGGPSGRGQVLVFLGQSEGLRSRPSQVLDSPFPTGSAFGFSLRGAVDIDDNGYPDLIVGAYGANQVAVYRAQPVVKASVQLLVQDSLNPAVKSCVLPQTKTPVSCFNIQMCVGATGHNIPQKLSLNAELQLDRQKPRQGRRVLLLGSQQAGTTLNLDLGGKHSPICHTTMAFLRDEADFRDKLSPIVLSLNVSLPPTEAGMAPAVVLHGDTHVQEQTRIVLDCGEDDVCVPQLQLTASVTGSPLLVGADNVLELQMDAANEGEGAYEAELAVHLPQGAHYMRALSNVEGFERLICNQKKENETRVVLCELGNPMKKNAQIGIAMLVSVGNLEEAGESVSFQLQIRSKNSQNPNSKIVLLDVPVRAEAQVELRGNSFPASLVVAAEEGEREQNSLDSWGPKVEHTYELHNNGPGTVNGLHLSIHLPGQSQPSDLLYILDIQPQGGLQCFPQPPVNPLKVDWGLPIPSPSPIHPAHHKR
T1 sequence (P08514 891-1039 limits assumed): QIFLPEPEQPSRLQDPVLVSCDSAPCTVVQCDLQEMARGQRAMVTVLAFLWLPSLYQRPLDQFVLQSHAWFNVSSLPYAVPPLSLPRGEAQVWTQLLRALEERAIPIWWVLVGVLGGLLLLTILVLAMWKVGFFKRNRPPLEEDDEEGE
T1 sequence (P05106 27-788): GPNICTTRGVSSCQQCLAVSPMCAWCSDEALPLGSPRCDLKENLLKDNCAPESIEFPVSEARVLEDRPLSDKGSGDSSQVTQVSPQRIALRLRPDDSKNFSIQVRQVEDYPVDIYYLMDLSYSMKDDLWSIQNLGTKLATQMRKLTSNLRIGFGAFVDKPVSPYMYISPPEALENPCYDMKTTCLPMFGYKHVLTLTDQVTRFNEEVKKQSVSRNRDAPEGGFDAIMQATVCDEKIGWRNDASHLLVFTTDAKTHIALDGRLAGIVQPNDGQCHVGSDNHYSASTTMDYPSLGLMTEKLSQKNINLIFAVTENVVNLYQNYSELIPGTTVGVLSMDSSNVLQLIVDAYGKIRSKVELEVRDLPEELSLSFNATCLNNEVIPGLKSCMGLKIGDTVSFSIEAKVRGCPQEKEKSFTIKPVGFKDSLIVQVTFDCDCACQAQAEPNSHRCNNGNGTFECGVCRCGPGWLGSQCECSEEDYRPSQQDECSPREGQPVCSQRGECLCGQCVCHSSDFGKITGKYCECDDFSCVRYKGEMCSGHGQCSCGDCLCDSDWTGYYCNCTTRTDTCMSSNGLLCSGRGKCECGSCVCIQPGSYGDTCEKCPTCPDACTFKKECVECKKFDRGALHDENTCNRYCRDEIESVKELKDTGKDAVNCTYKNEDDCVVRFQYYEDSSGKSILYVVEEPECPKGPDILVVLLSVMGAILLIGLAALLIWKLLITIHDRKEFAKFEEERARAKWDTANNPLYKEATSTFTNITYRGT

Regarding `N=C(N)c1ccc(C2=NOC3(CCN(CCCC(=O)O)CC3)C2)cc1` [Example 8], in data set [1], the IC50 was 320 nM.

`N=C(N)c1ccc(C2=NOC3(CCN(CCC(=O)O)CC3)C2)cc1` [Example 15, 4-(3-(4-(Aminoiminomethyl)phenyl)-1-oxa-2,8-diaza-spiro[4.5]dec-2-en-8-yl)propanoic Acid] had a half-inhibitory concentration (IC50) in data set [1] of 110 nM.

Regarding `O=C(O)CN1C(=O)CC2(CCN(CCc3ccncc3)CC2)CC1=O` [Example 26, (9-(2-(Pyridin-4-yl)ethyl)-2,4-dioxo-3,9-diazaspiro[5.5]undec-3-yl)acetic Acid Trifluoroacetate], the IC50 in data set [1] is over 100000 nM.

In data set [1], `O=C(O)CC1CCC2(CC1)CCN(CCC1CCNCC1)CC2` [Example 25, (3-(2-(Piperidin-4-yl)ethyl)-3-azaspiro[5.5]undec-9-yl)acetic Acid] came in with an IC50 of over 10000 nM.

Turning to `O=C(O)CC1CCC2(CC1)CCN(CCc1ccncc1)CC2` [Example 23, (3-(2-(Pyridin-4-yl)ethyl)-3-azaspiro[5.5]undec-9-yl)acetic Acid], in data set [1], the concentration for half-maximal inhibition (IC50) is over 100000 nM.

The molecule `O=C(O)CN1CCC2(CCN(CCC3CCNCC3)CC2)CC1` [Example 27, (9-(2-(Piperidin-4-yl)ethyl)-3,9-diazaspiro[5.5]undec-3-yl)acetic Acid Tristrifluoroacetate] came in with an IC50 in data set [1] of 100000 nM.

On to `N=C(N)NCCCCC(=O)N1CCC2(CC1)CN(CC(=O)O)C(=O)O2` [Example 38], for which the results for the 50% inhibitory concentration (IC50) (in data set [1]; at GPIIb-IIIa) were 7000 nM and 1850 nM, respectively.

Take `N=C(N)c1ccc(C(=O)N2CCC3(CC2)C(=O)N(CC(=O)O)C(=O)N3Cc2ccccc2)cc1` [Example 13, Trifluoroacetate]: in data set [1], the IC50 was over 100000 nM.

In data set [1], `N=C(N)c1ccc(N2CC3(CCN(CCCC(=O)O)CC3)OC2=O)cc1` [Example 4, 4-(3-(4-(Aminoiminomethyl)phenyl)-2-oxo-1-oxa-3,8-diaza-5 spiro[4.5]dec-8-yl)butanoic Acid Bistrifluoroacetate] registered a 50% inhibitory concentration (IC50) of 3000 nM.

The molecule `N=C(N)c1ccc(C(=O)NC2CCC3(CC2)CN(CC(=O)O)C(=O)O3)cc1` (stereo not drawn) [Example 36, (8-(4-(Aminoiminomethyl)benzamido)-2-oxo-1-oxa-3-aza-spiro[4.5]dec-3-yl)acetic Acid] came in with a melting point of 280 to 284 °C. The molecule further registered an IC50 in data set [1] of 510 nM. Moreover, at GPIIb-IIIa, the IC50 was 170 nM.

For `N=C(N)NCCCCCC(=O)N1CCC2(CC1)CN(CC(=O)O)C(=O)O2` [Example 39], the IC50 in data set [1] amounted to 12000 nM; at GPIIb-IIIa, 2700 nM.

In data set [1], `N=C(N)c1ccc(C(=O)N2CCC3(CC2)NC(=O)N(CCCC(=O)O)C3=O)cc1` [Example 21, Trifluoroacetate] returned an IC50 of over 10000 nM.

As for `N=C(N)c1ccc(COC2CCC3(CC2)CN(CC(=O)O)C(=O)O3)cc1` (stereo not drawn) [Example 34, (8-(4-(Aminoiminomethyl)benzyloxy)-2-oxo-1-oxa-3-aza-spiro[4.5]dec-3-yl)acetic Acid], the IC50 in data set [1] came out at 1290 nM; at GPIIb-IIIa, 350 nM.

For `N=C(N)c1ccc(C(=O)N2CCC3(CC2)CN(CCCC(=O)O)C(=O)CO3)cc1` [Example 12, Hydrochloride], in data set [1], the IC50 is over 10000 nM.

As to `N=C(N)c1ccc(C(=O)N2CCC3(CCN(C(=O)CCCC(=O)O)CC3)CC2)cc1` [Example 42, 5-((3-(4-Aminoiminomethyl)benzoyl)-3,9-diaza-spiro[5.5]undec-9-yl)-5-oxopentanoic Acid], the IC50 in data set [1] came to 10000 nM; at GPIIb-IIIa it was 3500 nM.

Regarding `CCOC(=O)CCCC(=O)N1CCC2(CC1)CC(c1ccc(C(=N)N)cc1)=NO2` [Example 16, Ethyl 5-(3-(4-(Aminoiminomethyl)phenyl)-1-oxa-2,8-diaza-spiro[4.]dec-2-en-8-yl)-5-oxopentanoate Hydrochloride], the midpoint of inhibition in data set [1], the IC50, lay at 200 nM.

For the molecule `CCOC(=O)CC1CCC2(CC1)CCN(C(=O)c1ccc(C(=N)N)cc1)CC2` [Example 1, Ethyl (3-(4-(Aminoiminomethyl)benzoyl)-3-aza-spiro[5.5]undec-9-yl)acetate Hydrochloride], the IC50 was 100000 nM in data set [1] and over 10000 nM at GPIIb-IIIa.

In data set [1], `CCOC(=O)CC1CCC2(CC1)CCN(CCc1ccncc1)CC2` [Example 22, Ethyl (3-(2-(Pyridin-4-yl)ethyl)-3-azaspiro[5.5]undec-9-yl)acetate] showed an IC50 of over 100000 nM.

As for `N=C(N)c1ccc(C2=NOC3(CCN(CCCCC(=O)O)CC3)C2)cc1` [Example 19], the IC50 in data set [1] worked out at 450 nM.

For the molecule `N=C(N)c1ccc(C(=O)N2CCC3(CCN(C(=O)CCC(=O)O)CC3)CC2)cc1` [Example 41, 4-((3-(4-Aminoiminomethyl)benzoyl)-3,9-diaza-spiro[5.5]undec-9-25 yl)-4-oxobutanoic Acid], the IC50 in data set [1] worked out at 14000 nM; at GPIIb-IIIa, 15000 nM.

For `N=C(N)c1ccc(C2=NOC3(CCN(C(=O)CCC(=O)O)CC3)C2)cc1` [Example 10], inhibition in data set [1] was half-maximal at 1000 nM (IC50).

As to `CCOC(=O)CCCN1CCC2(CC1)CC(c1ccc(C(=N)N)cc1)=NO2` [Example 7, Hydrochloride], the IC50 in data set [1] amounted to 2800 nM.

Take `CCOC(=O)CC1CCC2(CC1)CCN(CCC1CCNCC1)CC2` [Example 24, Ethyl (3-(2-(Piperidin-4-yl)ethyl)-3-azaspiro[5.5]undec-9-yl)acetate]: the IC50 in data set [1] is over 100000 nM.

Turning to `N=C(N)c1ccc(C(=O)N2CCC3(CCN(CC(=O)O)C(=O)O3)CC2)cc1` [Example 33, (9-(4-(Aminoiminomethyl)benzoyl)-2-oxo-1-oxa-3,9-diaza-spiro[5.5]undec-3-yl)acetic Acid], the figures for the IC50 (in data set [1]; on GPIIb-IIIa) were 66000 nM and 16500 nM, respectively.

Regarding `N=C(N)c1ccc(C(=O)N2CCC3(CCC(CC(=O)O)CC3)CC2)cc1` [Example 2, (3-(4-(Aminoiminomethyl)benzoyl)-3-aza-spiro[5.5]undec-9-yl)acetic Acid Hydrochloride], the IC50 in data set [1] stood at 410 nM; on GPIIb-IIIa, 8.2 nM.

`CCOC(=O)CCN1CCC2(CC1)CC(c1ccc(C(=N)N)cc1)=NO2` [Example 14, Hydrochloride] came in with an IC50 in data set [1] of 640 nM.

Turning to `N=C(N)NCCCC(=O)N1CCC2(CC1)CN(CC(=O)O)C(=O)O2` [Example 37], the IC50 in data set [1] came out at 52000 nM; on GPIIb-IIIa, 19000 nM.

For the molecule `N=C(N)c1ccc(CC(=O)N2CCC3(CC2)CCN(CC(=O)O)C(=O)O3)cc1` [Example 32], the IC50 was 2130 nM in data set [1] and 200 nM on GPIIb-IIIa.

With `N=C(N)c1ccc(C2=NOC3(CCN(C(=O)CCCC(=O)O)CC3)C2)cc1` [Example 17], half-maximal inhibition in data set [1] (IC50) was put at 84 nM.

As to `O=C(O)CN1CCC2(CCN(CCc3ccncc3)CC2)CC1` [Example 20, (9-(2-(Pyridin-4-yl)ethyl)-3,9-diazaspiro[5.5]undec-3-yl)acetic Acid Bistrifluoroacetate], in data set [1], the IC50 was over 100000 nM.

Take `N=C(N)c1ccc(CC(=O)N2CCC3(CC2)CN(CC(=O)O)C(=O)O3)cc1` [Example 31, (8-(2-(4-Aminoiminomethyl)acetyl)-2-oxo-1-oxa-3,8-diaza-spiro[4.5]dec-3-yl)acetic Acid.]: the concentration for half-maximal inhibition (IC50) in data set [1] stood at 1110 nM; at GPIIb-IIIa it was 74 nM.

In data set [1], `N=C(N)c1ccc(C2=NOC3(CCN(CC(=O)O)CC3)C2)cc1` [Example 6] yielded an IC50 of 4000 nM.

A word on the IC50: it is the midpoint of a concentration-inhibition curve. As usually defined, the melting point is the temperature, or range, at which the solid turns liquid.
